Measured values: PubChem BioAssay (NCI)
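GI50 marks 50% less growth. The concentration for full growth arrest is given as TGI.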

Key:
Experiment in all cases: NCI tumour cell line growth inhibition, 384-well format
SR leukemia = tested on: SR leukemia
OVCAR-3 ovarian = tested on: OVCAR-3 ovarian
MOLT-4 leukemia = tested on: MOLT-4 leukemia
RPMI-8226 leukemia = tested on: RPMI-8226 leukemia
SF-539 CNS = tested on: SF-539 CNS
CCRF-CEM leukemia = tested on: CCRF-CEM leukemia
K-562 leukemia = tested on: K-562 leukemia
A549 NSCLC = tested on: A549 NSCLC
HOP-92 NSCLC = tested on: HOP-92 NSCLC
UACC-62 melanoma = tested on: UACC-62 melanoma
IGROV1 ovarian = tested on: IGROV1 ovarian
DU-145 prostate = tested on: DU-145 prostate
M14 melanoma = tested on: M14 melanoma
UACC-257 melanoma = tested on: UACC-257 melanoma
A498 renal = tested on: A498 renal
BT-549 breast = tested on: BT-549 breast
RXF 393 renal = tested on: RXF 393 renal
SK-OV-3 ovarian = tested on: SK-OV-3 ovarian
SW-620 colon = tested on: SW-620 colon
HL-60(TB) leukemia = tested on: HL-60(TB) leukemia
HT29 colon = tested on: HT29 colon
786-0 renal = tested on: 786-0 renal
MCF7 breast = tested on: MCF7 breast
SNB-19 CNS = tested on: SNB-19 CNS
NCI-H522 lung = tested on: NCI-H522 lung
NCI-H23 lung = tested on: NCI-H23 lung
HOP-62 NSCLC = tested on: HOP-62 NSCLC
MALME-3M melanoma = tested on: MALME-3M melanoma
SNB-75 CNS = tested on: SNB-75 CNS
UO-31 renal = tested on: UO-31 renal
NCI-H460 NSCLC = tested on: NCI-H460 NSCLC
OVCAR-4 ovarian = tested on: OVCAR-4 ovarian
U251 glioblastoma = tested on: U251 glioblastoma
T-47D breast = tested on: T-47D breast
LOX IMVI melanoma = tested on: LOX IMVI melanoma
MDA-MB-435 melanoma = tested on: MDA-MB-435 melanoma
NCI-H226 lung = tested on: NCI-H226 lung
TK-10 renal = tested on: TK-10 renal
KM12 colon = tested on: KM12 colon
MDA-MB-231 breast = tested on: MDA-MB-231 breast
NCI-H322M lung = tested on: NCI-H322M lung
OVCAR-5 ovarian = tested on: OVCAR-5 ovarian
EKVX NSCLC = tested on: EKVX NSCLC
NCI/ADR-RES ovarian = tested on: NCI/ADR-RES ovarian
SK-MEL-28 melanoma = tested on: SK-MEL-28 melanoma
ACHN renal = tested on: ACHN renal
SN12C renal = tested on: SN12C renal
HCT-116 colon = tested on: HCT-116 colon
HCC-2998 colon = tested on: HCC-2998 colon
SK-MEL-5 melanoma = tested on: SK-MEL-5 melanoma
OVCAR-8 ovarian = tested on: OVCAR-8 ovarian
CAKI-1 renal = tested on: CAKI-1 renal
SF-268 CNS = tested on: SF-268 CNS
SF-295 CNS = tested on: SF-295 CNS
MDA-MB-468 breast = tested on: MDA-MB-468 breast
SK-MEL-2 melanoma = tested on: SK-MEL-2 melanoma
HCT-15 colon = tested on: HCT-15 colon
PC-3 prostate = tested on: PC-3 prostate
COLO 205 colon = tested on: COLO 205 colon

CO[C@H]1/C=C/C[C@H](C)[C@@H](C)S(=O)(=O)NC(=O)c2ccc3c(c2)N(C[C@@H]2CC[C@H]21)C[C@@]1(CCCc2cc(Cl)ccc21)CO3
GI50 (SR leukemia): 0.0287 µM | TGI (SR leukemia): 0.173 µM | GI50 (OVCAR-3 ovarian): 1.71 µM | TGI (OVCAR-3 ovarian): 3.22 µM | GI50 (MOLT-4 leukemia): 0.263 µM | TGI (MOLT-4 leukemia): 0.794 µM | GI50 (RPMI-8226 leukemia): 0.0172 µM | TGI (RPMI-8226 leukemia): 0.0405 µM | GI50 (SF-539 CNS): 1.75 µM | TGI (SF-539 CNS): 3.42 µM | GI50 (CCRF-CEM leukemia): 0.468 µM | TGI (CCRF-CEM leukemia): 1.11 µM | GI50 (K-562 leukemia): 2 µM | TGI (K-562 leukemia): 5.52 µM | GI50 (A549 NSCLC): 3.37 µM | TGI (A549 NSCLC): 11.1 µM | GI50 (HOP-92 NSCLC): 2.13 µM | TGI (HOP-92 NSCLC): 5.71 µM | GI50 (UACC-62 melanoma): 0.284 µM | TGI (UACC-62 melanoma): 0.762 µM | GI50 (IGROV1 ovarian): 3.71 µM | TGI (IGROV1 ovarian): 13.4 µM | GI50 (DU-145 prostate): 3.87 µM | TGI (DU-145 prostate): 13.1 µM | GI50 (M14 melanoma): 2.07 µM | TGI (M14 melanoma): 4.4 µM | GI50 (UACC-257 melanoma): 2.95 µM | TGI (UACC-257 melanoma): 9.81 µM | GI50 (A498 renal): 3.29 µM | TGI (A498 renal): 12.5 µM | GI50 (BT-549 breast): 1.65 µM | TGI (BT-549 breast): 3.33 µM | GI50 (RXF 393 renal): 0.689 µM | TGI (RXF 393 renal): 2.35 µM | GI50 (SK-OV-3 ovarian): 4.24 µM | TGI (SK-OV-3 ovarian): 13.1 µM | GI50 (SW-620 colon): 2.12 µM | TGI (SW-620 colon): 4.77 µM | GI50 (HL-60(TB) leukemia): 0.021 µM | TGI (HL-60(TB) leukemia): 0.0423 µM | GI50 (HT29 colon): 3.59 µM | TGI (HT29 colon): 12.4 µM | GI50 ([…]-0 renal): 4.4 µM | TGI (786-0 renal): 15.8 µM | GI50 (MCF7 breast): 1.31 µM | TGI (MCF7 breast): 4 µM | GI50 (SNB-19 CNS): 3.81 µM | TGI (SNB-19 CNS): 11.9 µM | GI50 (NCI-H522 lung): 0.95 µM | TGI (NCI-H522 lung): 2.27 µM | GI50 (NCI-H23 lung): 0.758 µM | TGI (NCI-H23 lung): 2.2 µM | GI50 (HOP-62 NSCLC): 2.61 µM | TGI (HOP-62 NSCLC): 6.27 µM | GI50 (MALME-3M melanoma): 2.83 µM | TGI (MALME-3M melanoma): 7.6 µM | GI50 (SNB-75 CNS): 3.6 µM | TGI (SNB-75 CNS): 9.04 µM | GI50 (UO-31 renal): 6.3 µM | TGI (UO-31 renal): 18.2 µM | GI50 (NCI-H460 NSCLC): 1.78 µM | TGI (NCI-H460 NSCLC): 3.44 µM | GI50 (OVCAR-4 ovarian): 1.33 µM | TGI (OVCAR-4 ovarian): 3.39 µM | GI50 (U251 glioblastoma): 3.2 µM | TGI (U251 glioblastoma): 9.92 µM | GI50 (T-47D breast): 2.79 µM | TGI (T-47D breast): 11.1 µM | GI50 (LOX IMVI melanoma): 2.29 µM | TGI (LOX IMVI melanoma): 4.18 µM | GI50 (MDA-MB-435 melanoma): 1.98 µM | TGI (MDA-MB-435 melanoma): 4.87 µM | GI50 (NCI-H226 lung): 3.1 µM | TGI (NCI-H226 lung): 9.05 µM | GI50 (TK-10 renal): 4.88 µM | TGI (TK-10 renal): 15.7 µM | GI50 (KM12 colon): 3.97 µM | TGI (KM12 colon): 13.5 µM | GI50 (MDA-MB-231 breast): 3.64 µM | TGI (MDA-MB-231 breast): 9.55 µM | GI50 (NCI-H322M lung): 6.3 µM | TGI (NCI-H322M lung): 18.4 µM | GI50 (OVCAR-5 ovarian): 8.16 µM | TGI (OVCAR-5 ovarian): 20.1 µM | GI50 (EKVX NSCLC): 1.98 µM | TGI (EKVX NSCLC): 7.23 µM | GI50 (NCI/ADR-RES ovarian): 1.74 µM | TGI (NCI/ADR-RES ovarian): 3.64 µM | GI50 (SK-MEL-28 melanoma): 2.67 µM | TGI (SK-MEL-28 melanoma): 6.64 µM | GI50 (ACHN renal): 4.5 µM | TGI (ACHN renal): 14.7 µM | GI50 (SN12C renal): 2.92 µM | TGI (SN12C renal): 7.99 µM | GI50 (HCT-116 colon): 2.93 µM | TGI (HCT-116 colon): 8.98 µM | GI50 (HCC-2998 colon): 1.62 µM | TGI (HCC-2998 colon): 3.84 µM | GI50 (SK-MEL-5 melanoma): 1.66 µM | TGI (SK-MEL-5 melanoma): 3.07 µM | GI50 (OVCAR-8 ovarian): 2.81 µM | TGI (OVCAR-8 ovarian): 7.42 µM | GI50 (CAKI-1 renal): 11.3 µM | TGI (CAKI-1 renal): 23.5 µM | GI50 (SF-268 CNS): 2.45 µM | TGI (SF-268 CNS): 7.41 µM | GI50 (SF-295 CNS): 1.8 µM | TGI (SF-295 CNS): 3.72 µM | GI50 (MDA-MB-468 breast): 0.339 µM | TGI (MDA-MB-468 breast): 1.07 µM | GI50 (SK-MEL-2 melanoma): 0.211 µM | TGI (SK-MEL-2 melanoma): 0.677 µM | GI50 (HCT-15 colon): 3.39 µM | TGI (HCT-15 colon): 10.6 µM | GI50 (PC-3 prostate): 3.93 µM | TGI (PC-3 prostate): 14 µM | GI50 (COLO 205 colon): 4.06 µM | TGI (COLO 205 colon): 11.3 µM
